The record followed here is US9453026B2, “ACC inhibitors and uses thereof” (Gilead Apollo, Inc., priority 2011, dated 2016).

Chain of ACC2 (O00763 whole entry, species assumed): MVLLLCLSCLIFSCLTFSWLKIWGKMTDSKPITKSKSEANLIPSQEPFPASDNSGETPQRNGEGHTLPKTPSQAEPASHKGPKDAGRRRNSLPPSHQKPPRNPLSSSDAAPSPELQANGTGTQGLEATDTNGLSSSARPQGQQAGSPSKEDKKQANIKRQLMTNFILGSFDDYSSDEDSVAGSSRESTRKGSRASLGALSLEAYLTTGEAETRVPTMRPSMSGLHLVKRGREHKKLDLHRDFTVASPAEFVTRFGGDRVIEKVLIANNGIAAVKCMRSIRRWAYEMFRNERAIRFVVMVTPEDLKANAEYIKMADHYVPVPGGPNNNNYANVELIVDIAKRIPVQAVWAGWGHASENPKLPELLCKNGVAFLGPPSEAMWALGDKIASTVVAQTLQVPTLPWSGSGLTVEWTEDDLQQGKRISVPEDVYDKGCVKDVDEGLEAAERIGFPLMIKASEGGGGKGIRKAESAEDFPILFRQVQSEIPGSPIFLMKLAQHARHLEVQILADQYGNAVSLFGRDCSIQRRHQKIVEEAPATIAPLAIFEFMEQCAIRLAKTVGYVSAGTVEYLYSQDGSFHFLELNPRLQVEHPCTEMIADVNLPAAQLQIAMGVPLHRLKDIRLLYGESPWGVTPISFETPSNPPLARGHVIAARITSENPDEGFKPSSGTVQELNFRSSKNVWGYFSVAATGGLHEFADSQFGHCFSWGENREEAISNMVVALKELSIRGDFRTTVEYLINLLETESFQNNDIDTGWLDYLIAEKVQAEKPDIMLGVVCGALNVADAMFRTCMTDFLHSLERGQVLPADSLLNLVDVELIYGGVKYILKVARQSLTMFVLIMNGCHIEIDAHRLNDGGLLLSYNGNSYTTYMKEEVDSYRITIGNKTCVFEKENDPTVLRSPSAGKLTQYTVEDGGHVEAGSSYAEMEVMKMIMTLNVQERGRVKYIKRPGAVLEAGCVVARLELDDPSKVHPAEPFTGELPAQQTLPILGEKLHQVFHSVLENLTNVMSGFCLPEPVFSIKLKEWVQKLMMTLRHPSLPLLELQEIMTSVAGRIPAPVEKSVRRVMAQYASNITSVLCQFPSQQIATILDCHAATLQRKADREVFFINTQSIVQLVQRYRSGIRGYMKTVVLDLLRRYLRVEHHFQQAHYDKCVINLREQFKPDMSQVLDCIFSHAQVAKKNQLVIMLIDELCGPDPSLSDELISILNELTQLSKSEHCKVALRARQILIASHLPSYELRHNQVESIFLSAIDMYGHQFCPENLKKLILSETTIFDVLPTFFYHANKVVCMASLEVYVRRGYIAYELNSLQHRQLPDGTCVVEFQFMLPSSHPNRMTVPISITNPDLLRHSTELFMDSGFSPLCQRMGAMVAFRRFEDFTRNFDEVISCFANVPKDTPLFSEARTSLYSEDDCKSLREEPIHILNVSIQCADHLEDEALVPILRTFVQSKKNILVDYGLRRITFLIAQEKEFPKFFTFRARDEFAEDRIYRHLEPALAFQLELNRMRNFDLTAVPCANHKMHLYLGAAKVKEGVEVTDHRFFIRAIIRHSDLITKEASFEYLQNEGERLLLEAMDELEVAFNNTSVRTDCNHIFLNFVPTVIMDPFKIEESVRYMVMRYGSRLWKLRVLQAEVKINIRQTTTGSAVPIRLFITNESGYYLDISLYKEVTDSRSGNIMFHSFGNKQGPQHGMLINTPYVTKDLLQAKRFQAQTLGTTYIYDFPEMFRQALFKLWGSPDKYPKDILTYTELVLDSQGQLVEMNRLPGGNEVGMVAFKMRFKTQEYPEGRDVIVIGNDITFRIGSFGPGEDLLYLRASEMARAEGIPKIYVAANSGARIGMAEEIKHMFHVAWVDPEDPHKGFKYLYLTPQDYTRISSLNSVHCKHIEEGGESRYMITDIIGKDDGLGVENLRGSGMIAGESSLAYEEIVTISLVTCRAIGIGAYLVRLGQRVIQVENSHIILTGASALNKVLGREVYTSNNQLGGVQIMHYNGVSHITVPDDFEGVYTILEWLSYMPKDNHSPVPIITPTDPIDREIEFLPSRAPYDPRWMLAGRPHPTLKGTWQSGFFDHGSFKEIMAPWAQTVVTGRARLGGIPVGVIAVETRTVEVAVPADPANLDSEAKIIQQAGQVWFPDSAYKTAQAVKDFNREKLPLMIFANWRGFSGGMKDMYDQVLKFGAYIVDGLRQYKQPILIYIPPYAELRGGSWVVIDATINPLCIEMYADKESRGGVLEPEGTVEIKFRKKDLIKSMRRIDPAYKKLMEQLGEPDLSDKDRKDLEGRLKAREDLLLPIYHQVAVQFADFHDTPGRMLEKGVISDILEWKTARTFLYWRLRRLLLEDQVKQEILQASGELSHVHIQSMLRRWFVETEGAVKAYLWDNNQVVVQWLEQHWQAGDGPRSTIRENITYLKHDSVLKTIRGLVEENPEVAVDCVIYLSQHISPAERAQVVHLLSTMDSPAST

The assay has as its target ACC2 (Homo sapiens, UniProt O00763). The experiment in a line: In vitro ACC2 inhibition assay (ADP-Glo). Conditions: read-out: ACC2. The assay is classed as biochemical. The method in brief:
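Enzyme (human ACC1 or ACC2) and compound, serially diluted 1:3 over 11 points from a 600 uM DMSO stock, were preincubated 15 min before substrate addition.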
For orientation: In ADP-Glo the light output rises with the ADP produced.
As for `CCOc1ccccc1[C@H](Cn1c(=O)n(C(C)(C)C(=O)O)c(=O)c2c(C)c(-c3ncco3)sc21)OC1CCOCC1` [I-183, 2-[1-[(2R)-2-(2-ethoxyphenyl)-2-(oxan-4-yloxy)ethyl]-5-methyl-6-(1,3-oxazol-2-yl)-2,4-dioxo-1H,2H,3H,4H-thieno[2,3-d]pyrimidin-3-yl]-2-methylpropanoic acid], the IC50 was less than 0.1 µM. As for `Cc1c(-c2ncco2)sc2c1c(=O)n(C(C)(C)C(=O)O)c(=O)n2C[C@H](OCC1CCCO1)c1ccccc1` (stereo partly drawn) [I-146, 2-methyl-2-[5-methyl-6-(1,3-oxazol-2-yl)-2,4-dioxo-1-[(2R)-2-(oxolan-2-ylmethoxy)-2-phenylethyl]-1H,2H,3H,4H-thieno[2,3-d]pyrimidin-3-yl]propanoic acid], the IC50 is less than 1 µM. To `Cc1c(-n2cncn2)sc2c1c(=O)n(C(C)(C)C(=O)O)c(=O)n2C[C@H](OC(C)C)c1ccccc1` [I-157, 2-methyl-2-[5-methyl-2,4-dioxo-1-[(2R)-2-phenyl-2-(propan-2-yloxy)ethyl]-6-(1H-1,2,4-triazol-1-yl)-1H,2H,3H,4H-thieno[2,3-d]pyrimidin-3-yl]propanoic acid] belongs 20 to 50 µM; to `CCOC(=O)c1sc2c(c1C)c(=O)n(CCO)c(=O)n2CCc1cc(F)cc(F)c1` [I-29, ethyl 1-[2-(3,5-difluorophenyl)ethyl]-3-(2-hydroxyethyl)-5-methyl-2,4-dioxo-1H,2H,3H,4H-thieno[2,3-d]pyrimidine-6-carboxylate], more than 50 µM. With `Cc1c(-c2ncco2)sc2c1c(=O)n(C(C)(C)C(=O)O)c(=O)n2C[C@H](O[C@H]1CC[C@@H](N)CC1)c1ccccc1` [I-167, 2-(1-((R)-2-(((1s,4S)-4-aminocyclohexyl)oxy)-2-phenylethyl)-5-methyl-6-(oxazol-2-yl)-2,4-dioxo-1,2-dihydrothieno[2,3-d]pyrimidin-3(4H)-yl)-2-methylpropanoic acid] the figure was less than 5 µM; with `COC(=O)c1sc2c(c1C)c(=O)n(CCO)c(=O)n2CCc1c(F)cccc1F` [I-25], more than 50 µM. With `CCOC(=O)c1sc2c(c1C)c(=O)n(C(C)(C)C(=O)O)c(=O)n2C[C@@H](OC(C)C)c1ccccc1` [I-109, 2-[6-(ethoxycarbonyl)-5-methyl-2,4-dioxo-1-[(2S)-2-phenyl-2-(propan-2-yloxy)ethyl]-1H,2H,3H,4H-thieno[2,3-d]pyrimidin-3-yl]-2-methylpropanoic acid] the figure was 5 to 20 µM; with `CCOC(=O)c1sc2c(c1C)c(=O)n(CC(=O)OC(C)(C)C)c(=O)n2CCc1ccccc1` [I-8], 5 to 20 µM; with `CCOC(=O)c1cc2c(=O)n(CC(=O)O)c(=O)n(CCc3ccccc3)c2s1` [I-91, 2-[6-(ethoxycarbonyl)-2,4-dioxo-1-(2-phenylethyl)-1H,2H,3H,4H-thieno[2,3-d]pyrimidin-3-yl]acetic acid], 5 to 20 µM. Consider `CCOC(=O)c1sc2c(c1C)c(=O)n(CCO)c(=O)n2CCc1cccc2ccccc12` [I-22], for which the IC50 was more than 50 µM. With `Cc1c(-c2ncco2)sc2c1c(=O)n(C(C)(C)C(=O)O)c(=O)n2C[C@H](OCc1ccccc1)c1ccccc1` [I-136, 2-[1-[(2R)-2-(benzyloxy)-2-phenylethyl]-5-methyl-6-(1,3-oxazol-2-yl)-2,4-dioxo-1H,2H,3H,4H-thieno[2,3-d]pyrimidin-3-yl]-2-methylpropanoic acid] the figure was less than 5 µM; with `CCOC(=O)c1sc2c(c1C)c(=O)n(CC(=O)O)c(=O)n2C[C@@H](OC)c1ccccc1` [I-104, 2-[6-(ethoxycarbonyl)-1-[(2S)-2-methoxy-2-phenylethyl]-5-methyl-2,4-dioxo-1H,2H,3H,4H-thieno[2,3-d]pyrimidin-3-yl]acetic acid], 20 to 50 µM; with `Cc1c(C(=O)NCCO)sc2c1c(=O)n(CCO)c(=O)n2CCc1ccccc1` [I-57], more than 50 µM. To `CCOC(=O)c1sc2c(c1C)c(=O)n(CCO)c(=O)n2CCCc1ccccc1` [I-12] belongs more than 50 µM; to `CCOC(=O)c1sc2c(c1C)c(=O)n(CCO)c(=O)n2CCc1ccccc1F` [I-23, ethyl 1-[2-(2-fluorophenyl)ethyl]-3-(2-hydroxyethyl)-5-methyl-2,4-dioxo-1H,2H,3H,4H-thieno[2,3-d]pyrimidine-6-carboxylate], 20 to 50 µM; to `Cc1c(-n2cccn2)sc2c1c(=O)n(C(C)(C)C(=O)O)c(=O)n2CCc1ccccc1` [I-116, 2-methyl-2-[5-methyl-2,4-dioxo-1-(2-phenylethyl)-6-(1H-pyrazol-1-yl)-1H,2H,3H,4H-thieno[2,3-d]pyrimidin-3-yl]propanoic acid], less than 5 µM. To `Cc1c(C(N)=O)sc2c1c(=O)n(CCO)c(=O)n2CCc1ccccc1` [I-47] belongs more than 50 µM.

As for `Cc1c(-c2ncco2)sc2c1c(=O)n(C(C)(C)C(=O)O)c(=O)n2C[C@H](OC1CCC(F)(F)CC1)c1ccccc1` [I-155, 2-[1-[(2R)-2-[(4,4-difluorocyclohexyl)oxy]-2-phenylethyl]-5-methyl-6-(1,3-oxazol-2-yl)-2,4-dioxo-1H,2H,3H,4H-thieno[2,3-d]pyrimidin-3-yl]-2-methylpropanoic acid], the IC50 was less than 1 µM. With `COC(=O)c1sc2c(c1C)c(=O)n(CCO)c(=O)n2CCc1ccccc1` [I-37, methyl 3-(2-hydroxyethyl)-5-methyl-2,4-dioxo-1-(2-phenylethyl)-1H,2H,3H,4H-thieno[2,3-d]pyrimidine-6-carboxylate], the IC50 is 5 to 20 µM. To `Cc1c(-c2ncco2)sc2c1c(=O)n(C(C)(C)C(=O)O)c(=O)n2C[C@H](OC[C@@H](C)CO)c1ccccc1` [I-171, 2-(1-((R)-2-((S)-3-hydroxy-2-methylpropoxy)-2-phenylethyl)-5-methyl-6-(oxazol-2-yl)-2,4-dioxo-1,2-dihydrothieno[2,3-d]pyrimidin-3(4H)-yl)-2-methylpropanoic acid] belongs less than 1 µM. Take `Cc1c(-c2ncco2)sc2c1c(=O)n(C(C)(C)C#N)c(=O)n2C[C@H](OC(C)C)c1ccccc1` [I-154, 2-methyl-2-[5-methyl-6-(1,3-oxazol-2-yl)-2,4-dioxo-1-[(2R)-2-phenyl-2-(propan-2-yloxy)ethyl]-1H,2H,3H,4H-thieno[2,3-d]pyrimidin-3-yl]propanenitrile]: the IC50 is less than 1 µM. To `Cc1c(C(=O)O)sc2c1c(=O)n(CCO)c(=O)n2CCc1ccccc1` [I-5] belongs more than 50 µM; to `COc1ccccc1[C@H](Cn1c(=O)n(CC(N)=O)c(=O)c2c(C)c(Br)sc21)OC1CCOCC1` [I-285, 2-[6-bromo-1-[(2R)-2-(2-methoxyphenyl)-2-(oxan-4-yloxy)ethyl]-5-methyl-2,4-dioxo-1H,2H,3H,4H-thieno[2,3-d]pyrimidin-3-yl]acetamide], less than 5 µM. With `Cc1c(-c2ncco2)sc2c1c(=O)n(CC(=O)O)c(=O)n2CCc1ccccc1` [I-92, 2-[5-methyl-6-(1,3-oxazol-2-yl)-2,4-dioxo-1-(2-phenylethyl)-1H,2H,3H,4H-thieno[2,3-d]pyrimidin-3-yl]acetic acid] the figure was less than 5 µM; with `CCOC(=O)c1sc2c(c1C)c(=O)n(CC(=O)O)c(=O)n2CC(OC(C)=O)c1ccccc1` (stereo not shown) [I-85, 2-[1-[2-(acetyloxy)-2-phenylethyl]-6-(ethoxycarbonyl)-5-methyl-2,4-dioxo-1H,2H,3H,4H-thieno[2,3-d]pyrimidin-3-yl]acetic acid], less than 5 µM; with `Cc1c(C(=O)OC2CCC2)sc2c1c(=O)n(CC(=O)O)c(=O)n2CCc1ccccc1` [I-86, 2-[6-(cyclobutoxycarbonyl)-5-methyl-2,4-dioxo-1-(2-phenylethyl)-1H,2H,3H,4H-thieno[2,3-d]pyrimidin-3-yl]acetic acid], 5 to 20 µM. With `CCc1ccccc1[C@@H](Cn1c(=O)n(C(C)(C)C(=O)O)c(=O)c2c(C)c(-c3ncco3)sc21)OCCO` [I-263, 2-[1-[(2S)-2-(2-ethylphenyl)-2-(2-hydroxyethoxy)ethyl]-5-methyl-6-(1,3-oxazol-2-yl)-2,4-dioxo-1H,2H,3H,4H-thieno[2,3-d]pyrimidin-3-yl]-2-methylpropanoic acid] the figure was less than 1 µM; with `Cc1c(C(N)=O)sc2c1c(=O)n(CC(=O)O)c(=O)n2CCc1ccccc1` [I-71, 2-[6-carbamoyl-5-methyl-2,4-dioxo-1-(2-phenylethyl)-1H,2H,3H,4H-thieno[2,3-d]pyrimidin-3-yl]acetic acid], more than 50 µM; with `CCOC(=O)c1sc2c(c1C)c(=O)n(CCO)c(=O)n2CCc1nccs1` [I-49], more than 50 µM. For the compound `Cc1c(-c2ncco2)sc2c1c(=O)n(C(C)(C)C(=O)O)c(=O)n2CCC1CCCCC1` [I-176, 2-[1-(2-cyclohexylethyl)-5-methyl-6-(1,3-oxazol-2-yl)-2,4-dioxo-1H,2H,3H,4H-thieno[2,3-d]pyrimidin-3-yl]-2-methylpropanoic acid], the IC50 was less than 5 µM. To `CCOCc1sc2c(c1C)c(=O)n(CCO)c(=O)n2CCc1ccccc1` [I-38, 6-(ethoxymethyl)-3-(2-hydroxyethyl)-5-methyl-1-(2-phenylethyl)-1H,2H,3H,4H-thieno[2,3-d]pyrimidine-2,4-dione] belongs more than 50 µM; to `Cc1c(-c2ncco2)sc2c1c(=O)n(C(C)(C)C(=O)O)c(=O)n2C[C@@H](Oc1ccc(F)cc1)c1ccccc1` [I-150, (S)-2-(1-(2-(4-fluorophenoxy)-2-phenylethyl)-5-methyl-6-(oxazol-2-yl)-2,4-dioxo-1,2-dihydrotheno[2,3-d]pyrimidin-3(4H)-yl)-2-methylpropanoic acid], 5 to 20 µM.

Regarding `Cc1c(-c2ncco2)sc2c1c(=O)n(C(C)(C)C(=O)O)c(=O)n2C[C@@H](Oc1ccc(-n2ccnc2)cc1)c1ccccc1` [I-161, 2-[1-[(2S)-2-[4-(1H-Imidazol-1-yl)phenoxy]-2-phenylethyl]-5-methyl-6-(1,3-oxazol-2-yl)-2,4-dioxo-1H,2H,3H,4H-thieno[2,3-d]pyrimidin-3-yl]-2-methylpropanoic acid], the IC50 was less than 5 µM. To `Cc1c(-c2ncco2)sc2c1c(=O)n(C(C)(C)C(=O)O)c(=O)n2CCc1ccccc1` [I-117, 2-methyl-2-[5-methyl-6-(1,3-oxazol-2-yl)-2,4-dioxo-1-(2-phenylethyl)-1H,2H,3H,34H-thieno[2,3-d]pyrimidin-3-yl]propanoic acid] belongs less than 5 µM.
